The record followed here is patent US10899769B2, “Imidazopiperazinone inhibitors of transcription activating proteins” (Board of Regents, The University of Texas System, priority 2018, dated 2021).

Each structure is given as a SMILES string.

Assay [1] concerns the target GST-CBP(1081-1197) bromodomain (Homo sapiens (Human), UniProt Q92793). In words: CBP AlphaScreen Assay. To be noted: binding to biotin-H4(1-21) Ac-K5/8/12/16. How it is done:
(§1) Specific binding of the CBP or BRD4 bromodomain to the acetylated peptide derived from the H4 histone substrate (tetra acetylated H4(1-21) Ac-K5/8/12/16) was measured in absence or presence of inhibitors. The GST tagged bromodomains of CBP (1081-1197) and BRD4 (49-170) were obtained from BPS Bioscience and binding to the biotinylated H4(1-21) Ac-K5/8/12/16 (AnaSpec. 64989) was assessed via AlphaScreen technology (Perkin Elmer).
(§2) 5 nM GST-CBP(1081-1197) and 20 nM biotin-H4(1-21) Ac-K5/8/12/16 (AnaSpec. 64989) were incubated with varying concentrations of CBP inhibitors in 15 μL of buffer containing 50 mM HEPES 7.5, […], 1 mM TCEP, and 0.003% Tween-20. After 30 minutes incubation at room temperature, 15 μL of detection buffer (BPS Bio. 33006) containing 7 μg/mL of Glutathione AlphaLisa acceptor beads (Perkin Elmer AL109) and 14 μg/mL of Streptavidin donor beads (Perkin Elmer 676002) was then added to the previous mixture. The reaction was incubated for an additional 2 hours at room temperature, and the AlphaScreen signal was quantified using the Envision Multilabel plate reader. As negative control, GST-CBP(1081-1197) was incubated with the non-acetylated biotin-H4(1-21) peptide(AnaSpec. 62555) and in presence of 0.25% of final DMSO concentration.
(§3) the binding of 2.5 nM of BRD4(49-170) to 10 nM biotin-H4(1-21) Ac-K5/8/12/16 (AnaSpec. 64989) was assessed following the same procedure described for the CBP assay. The standard dose response curves were fitted by Genedata Screener software using the variable-slope model: Signal=Signalnegative control+(SignalDMSO control−Signalnegative control)/(1+(IC50/Dose)^Hill slope).
(§4) Only Signal and Dose in the equation were treated as know values.
(Bead proximity is the source of the signal in Alpha formats.)

The target in another assay is BRD4(49-170) bromodomain (Homo sapiens (Human), UniProt O60885). In words: BRD4 AlphaScreen Assay. As to conditions: binding to biotin-H4(1-21) Ac-K5/8/12/16. As for the experimental part: as §1, §2, §3, §4

GST-CBP(1081-1197) bromodomain, sequence (Q92793 1081-1197): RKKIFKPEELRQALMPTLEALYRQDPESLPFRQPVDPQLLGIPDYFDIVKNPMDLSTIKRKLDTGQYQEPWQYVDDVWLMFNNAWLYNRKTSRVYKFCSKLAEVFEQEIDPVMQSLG

For the molecule `CC1C(=O)N(C)Cc2c(-c3cccc4nc(-c5cnn(C)c5)c(C#N)cc34)nc(C3CCOCC3)n21` (single isomer, unassigned) [Example 8a, 5-(5,7-dimethyl-6-oxo-3-(tetrahydro-2H-pyran-4-yl)-5,6,7,8-tetrahydroimidazo[1,5-a]pyrazin-1-yl)-2-(1-methyl-1H-pyrazol-4-yl)quinoline-3-carbonitrile], the values for the IC50 (in assay [1]; on BRD4(49-170) bromodomain) were 0.513 µM and ≥ 25 µM, respectively.

As for `CC1C(=O)N(C)Cc2c(-c3cccc4nc(-c5cnn(C)c5)c(C#N)cc34)nc(C3CCOCC3)n21` (single isomer, unassigned) [Example 8b, 5-(5,7-dimethyl-6-oxo-3-(tetrahydro-2H-pyran-4-yl)-5,6,7,8-tetrahydroimidazo[1,5-a]pyrazin-1-yl)-2-(1-methyl-1H-pyrazol-4-yl)quinoline-3-carbonitrile], the values for the concentration for half-maximal inhibition (IC50) (in assay [1]; on BRD4(49-170) bromodomain) were 0.002 µM and 0.332 µM, respectively.

`CC1C(=O)N(C)Cc2c(-c3cccc4cc(C5CCOCC5)ncc34)nc(C3CCOCC3)n21` (single isomer, unassigned) [Example 15a, 5,7-dimethyl-3-(tetrahydro-2H-pyran-4-yl)-1-(3-(tetrahydro-2H-pyran-4-yl)isoquinolin-8-yl)-7,8-dihydroimidazo[1,5-a]pyrazin-6(5H)-one]: the half-maximal inhibitory concentration (IC50) (commonly the concentration needed to halve the response being measured) in assay [1] worked out at 0.17 µM; on BRD4(49-170) bromodomain it was 19.7 µM.

`CC1C(=O)N(C)Cc2c(-c3cccc4cc(C5CCOCC5)ncc34)nc(C3CCOCC3)n21` (single isomer, unassigned) [Example 15b, 5,7-dimethyl-3-(tetrahydro-2H-pyran-4-yl)-1-(3-(tetrahydro-2H-pyran-4-yl)isoquinolin-8-yl)-7,8-dihydroimidazo[1,5-a]pyrazin-6(5H)-one]: the figures for the IC50 (in assay [1]; at BRD4(49-170) bromodomain) were 0.002 µM and 0.195 µM, respectively.

With `CC1C(=O)N(C)Cc2c(-c3cccc4cc(N5CCOCC5)ncc34)nc(C3CCOCC3)n21` (single isomer, unassigned) [Example 16a, 5,7-Dimethyl-1-(3-morpholinoisoquinolin-8-yl)-3-(tetrahydro-2H-pyran-4-yl)-7,8-dihydroimidazo[1,5-a]pyrazin-6(5H)-one], the results for the IC50 (in assay [1]; on BRD4(49-170) bromodomain) were 1.12 µM and ≥ 25 µM, respectively.

As to `CC1C(=O)N(C)Cc2c(-c3cccc4cc(N5CCOCC5)ncc34)nc(C3CCOCC3)n21` (single isomer, unassigned) [Example 16b, 5,7-Dimethyl-1-(3-morpholinoisoquinolin-8-yl)-3-(tetrahydro-2H-pyran-4-yl)-7,8-dihydroimidazo[1,5-a]pyrazin-6(5H)-one], the IC50 was found to be 0.003 µM in assay [1] and 0.353 µM on BRD4(49-170) bromodomain.

For `CC1C(=O)N(C)Cc2c(-c3cccc4nc(-c5cnn(C)c5)c(C(F)(F)F)cc34)nc(C3CCOCC3)n21` (single isomer, unassigned) [Example 26a, 5,7-Dimethyl-1-(2-(1-methyl-1H-pyrazol-4-yl)-3-(trifluoromethyl)quinolin-5-yl)-3-(tetrahydro-2H-pyran-4-yl)-7,8-dihydroimidazo[1,5-a]pyrazin-6(5H)-one], the IC50 in assay [1] came out at 0.002 µM; on BRD4(49-170) bromodomain, 0.193 µM.

With `CC1C(=O)N(C)Cc2c(-c3cccc4nc(-c5cnn(C)c5)c(C(F)(F)F)cc34)nc(C3CCOCC3)n21` (single isomer, unassigned) [Example 26b, 5,7-Dimethyl-1-(2-(1-methyl-1H-pyrazol-4-yl)-3-(trifluoromethyl)quinolin-5-yl)-3-(tetrahydro-2H-pyran-4-yl)-7,8-dihydroimidazo[1,5-a]pyrazin-6(5H)-one], the IC50 was determined as 0.271 µM in assay [1] and 11.7 µM on BRD4(49-170) bromodomain.

For the molecule `CC1C(=O)N(C)Cc2c(-c3cccc4nc(-c5cnn(C)c5)c(C(F)F)cc34)nc(C3CCS(=O)(=O)CC3)n21` (single isomer, unassigned) [Example 29a, 1-(3-(Difluoromethyl)-2-(1-methyl-1H-pyrazol-4-yl)quinolin-5-yl)-3-(1,1-dioxidotetrahydro-2H-thiopyran-4-yl)-5,7-dimethyl-7,8-dihydroimidazo[1,5-a]pyrazin-6(5H)-one], the IC50 in assay [1] is 6.5 µM; at BRD4(49-170) bromodomain, ≥ 25 µM.

As for `CC1C(=O)N(C)Cc2c(-c3cccc4nc(-c5cnn(C)c5)c(C(F)F)cc34)nc(C3CCS(=O)(=O)CC3)n21` (single isomer, unassigned) [Example 29b, 1-(3-(Difluoromethyl)-2-(1-methyl-1H-pyrazol-4-yl)quinolin-5-yl)-3-(1,1-dioxidotetrahydro-2H-thiopyran-4-yl)-5,7-dimethyl-7,8-dihydroimidazo[1,5-a]pyrazin-6(5H)-one], the results for the IC50 (in assay [1]; on BRD4(49-170) bromodomain) were 0.032 µM and 0.592 µM, respectively.

Regarding `Cc1cn(-c2cc3cccc(-c4nc(C5CCOCC5)n5c4CN(C)C(=O)C5C)c3cn2)cn1` (single isomer, unassigned) [Example 30a, 5,7-dimethyl-1-(3-(4-methyl-1H-imidazol-1-yl)isoquinolin-8-yl)-3-(tetrahydro-2H-pyran-4-yl)-7,8-dihydroimidazo[1,5-a]pyrazin-6(5H)-one], the IC50 was 0.001 µM in assay [1] and 0.096 µM on BRD4(49-170) bromodomain.

For the molecule `Cc1cn(-c2cc3cccc(-c4nc(C5CCOCC5)n5c4CN(C)C(=O)C5C)c3cn2)cn1` (single isomer, unassigned) [Example 30b, 5,7-dimethyl-1-(3-(4-methyl-1H-imidazol-1-yl)isoquinolin-8-yl)-3-(tetrahydro-2H-pyran-4-yl)-7,8-dihydroimidazo[1,5-a]pyrazin-6(5H)-one], the IC50 in assay [1] is 0.373 µM; on BRD4(49-170) bromodomain, 18.6 µM.

As to `Cc1ncc(-c2cc3cccc(-c4nc(C5CCOCC5)n5c4CN(C)C(=O)C5C)c3cn2)s1` (single isomer, unassigned) [Example 31a, 5,7-Dimethyl-1-(3-(2-methylthiazol-5-yl)isoquinolin-8-yl)-3-(tetrahydro-2H-pyran-4-yl)-7,8-dihydroimidazo[1,5-a]pyrazin-6(5H)-one], the concentration for half-maximal inhibition (IC50) in assay [1] was found to be 0.038 µM; at BRD4(49-170) bromodomain, 2.69 µM.

Turning to `Cc1ncc(-c2cc3cccc(-c4nc(C5CCOCC5)n5c4CN(C)C(=O)C5C)c3cn2)s1` (single isomer, unassigned) [Example 31b, 5,7-Dimethyl-1-(3-(2-methylthiazol-5-yl)isoquinolin-8-yl)-3-(tetrahydro-2H-pyran-4-yl)-7,8-dihydroimidazo[1,5-a]pyrazin-6(5H)-one], the IC50 in assay [1] turned out to be 0.002 µM; on BRD4(49-170) bromodomain, 0.106 µM.

With `CC1C(=O)N(C)Cc2c(-c3cccc4nc(-c5cnn(C)c5)c(C(F)F)cc34)nc(C3(C)CCOCC3)n21` (single isomer, unassigned) [Example 32a, 1-(3-(Difluoromethyl)-2-(1-methyl-1H-pyrazol-4-yl)quinolin-5-yl)-5,7-dimethyl-3-(4-methyltetrahydro-2H-pyran-4-yl)-7,8-dihydroimidazo[1,5-a]pyrazin-6(5H)-one], the IC50 is 0.49 µM in assay [1] and ≥ 25 µM at BRD4(49-170) bromodomain.

For `CC1C(=O)N(C)Cc2c(-c3cccc4nc(-c5cnn(C)c5)c(C(F)F)cc34)nc(C3(C)CCOCC3)n21` (single isomer, unassigned) [Example 32b, 1-(3-(Difluoromethyl)-2-(1-methyl-1H-pyrazol-4-yl)quinolin-5-yl)-5,7-dimethyl-3-(4-methyltetrahydro-2H-pyran-4-yl)-7,8-dihydroimidazo[1,5-a]pyrazin-6(5H)-one], the IC50 in assay [1] is 0.002 µM; on BRD4(49-170) bromodomain it was 0.351 µM.

On to `Cc1cn(-c2cc3ccc(F)c(-c4nc(C5CCOCC5)n5c4CN(C)C(=O)C5C)c3cn2)cn1` (single isomer, unassigned) [Example 33a, 1-(7-fluoro-3-(4-methyl-1H-imidazol-1-yl)isoquinolin-8-yl)-5,7-dimethyl-3-(tetrahydro-2H-pyran-4-yl)-7,8-dihydroimidazo[1,5-a]pyrazin-6(5H)-one], for which the IC50 is 1.61 µM in assay [1] and ≥ 25 µM on BRD4(49-170) bromodomain.

`Cc1cn(-c2cc3ccc(F)c(-c4nc(C5CCOCC5)n5c4CN(C)C(=O)C5C)c3cn2)cn1` (single isomer, unassigned) [Example 33b, 1-(7-fluoro-3-(4-methyl-1H-imidazol-1-yl)isoquinolin-8-yl)-5,7-dimethyl-3-(tetrahydro-2H-pyran-4-yl)-7,8-dihydroimidazo[1,5-a]pyrazin-6(5H)-one]: the IC50 in assay [1] came to 0.006 µM; on BRD4(49-170) bromodomain it was 2.12 µM.

With `CC1C(=O)N(C)Cc2c(-c3c(F)ccc4cc(C5CCOCC5)ncc34)nc(C3CCOCC3)n21` (single isomer, unassigned) [Example 34a, 1-(7-Fluoro-3-(tetrahydro-2H-pyran-4-yl)isoquinolin-8-yl)-5,7-dimethyl-3-(tetrahydro-2H-pyran-4-yl)-7,8-dihydroimidazo[1,5-a]pyrazin-6(5H)-one], the IC50 is 2.46 µM in assay [1] and ≥ 25 µM on BRD4(49-170) bromodomain.
